These results are taken from patent US20250230193A1, “CYCLIC COMPOUND HAVING SELECTIVE KRAS INHIBITORY EFFECT ON HRAS AND NRAS” (CHUGAI SEIYAKU KABUSHIKI KAISHA, priority 2022, published 2025).

Assay [1] has as its target GDP-bound NRAS wild-type protein (Homo sapiens, UniProt P01111). The assay is described as follows: Binding to NRAS by surface plasmon resonance (SPR), Single Cycle Kinetics. Particulars: for NRAS/KRAS (ratio of KD value with respect to NRAS to KD value with respect to KRAS) / NRAS/KRAS (ratio of KD value for NRAS to KD value for KRAS): GDP-bound NRAS wild-type vs GDP-bound KRAS wild-type.

Assay [2] deals with GDP-bound HRAS wild-type protein (Homo sapiens, UniProt P01112). The assay is described as follows: Binding to HRAS by surface plasmon resonance (SPR), Single Cycle Kinetics. As to conditions: for HRAS/KRAS (ratio of KD value with respect to HRAS to KD value with respect to KRAS) / HRAS/KRAS (ratio of KD value for HRAS to KD value for KRAS): GDP-bound HRAS wild-type vs GDP-bound KRAS wild-type. In general terms: Surface plasmon resonance follows binding to a sensor surface in real time, without labels.
GDP-bound HRAS wild-type protein, sequence (P01112 whole entry): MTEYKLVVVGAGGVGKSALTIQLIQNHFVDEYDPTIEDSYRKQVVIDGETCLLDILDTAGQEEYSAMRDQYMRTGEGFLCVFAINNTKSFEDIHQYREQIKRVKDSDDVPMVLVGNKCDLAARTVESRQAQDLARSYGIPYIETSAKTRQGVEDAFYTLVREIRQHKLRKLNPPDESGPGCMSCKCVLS

The structures appear in SMILES notation. Where a SMILES comes first, the peptide text is derived from it. Bridges are numbered along the chain shown (N, C = ends). [ ]: non-standard residue; d: D form. The star is where a group is joined. hPhe(3-Cl-4-CF3) = N[C@@H](CCc1ccc(C(F)(F)F)c(Cl)c1)C(=O)O; NPrPhe(4-CF3) = CCCN[C@@H](Cc1ccc(C(F)(F)F)cc1)C(=O)O; NMeAbu(4,4,4-F3) = CN[C@@H](CC(F)(F)F)C(=O)O; NMeGly(cPent) = CN[C@H](C(=O)O)C1CCCC1; NMeD = CN[C@@H](CC(=O)O)C(=O)O; Morpholide = C1CN(*)CCO1; Ac5c = NC1(C(=O)O)CCCC1; Sar = CNCC(=O)O

GDP-bound NRAS wild-type protein, sequence (P01111 whole entry): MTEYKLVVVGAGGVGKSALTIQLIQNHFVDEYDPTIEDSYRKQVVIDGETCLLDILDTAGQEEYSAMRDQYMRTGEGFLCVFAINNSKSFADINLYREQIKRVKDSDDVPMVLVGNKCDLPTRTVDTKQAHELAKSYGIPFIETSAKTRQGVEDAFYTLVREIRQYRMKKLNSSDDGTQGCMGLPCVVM

`CCC[C@H]1C(=O)N[C@@H]([C@@H](C)CC)C(=O)N(C)CC(=O)N(C)[C@H]2C/C=C\CCN(C2=O)[C@@H](Cc2ccc(C(F)(F)F)cc2)C(=O)N(C)CC(=O)N[C@@H](CCc2ccc(Cl)c(Cl)c2)C(=O)N2CCOC[C@H]2C(=O)NC2(CC(C)(C)C2)C(=O)N(C)[C@@H](C(CC)CC)C(=O)N(C)[C@H](C(=O)N(C)C)CC(=O)N1C` [PP2920]: in assay [1] (KD ratio NRAS/KRAS, class symbols), the “NRAS/KRAS (ratio of KD value with respect to GDP-bound NRAS wild-type protein to KD value with respect to KRAS)” value is “AA (a compound having 20 or more is denoted as AA)”. Besides, the “HRAS/KRAS (ratio of KD value with respect to GDP-bound HRAS wild-type protein to KD value with respect to KRAS)” value in assay [2] (KD ratio HRAS/KRAS, class symbols) is “A (a compound having 10 or more and less than 20 is denoted as A)”.
Take `CCOC[C@H]1C(=O)N[C@@H]([C@@H](C)CC)C(=O)N(C)CC(=O)N(C)[C@H]2CCCCCN(C2=O)[C@@H](Cc2ccc(C(F)(F)F)cc2)C(=O)N(C)CC(=O)N[C@@H](CCc2cc(F)c(C(F)(F)F)c(F)c2)C(=O)N2C[C@H](OCC)C[C@H]2C(=O)NC2(CCC2)C(=O)N(C)[C@@H](C2CCCC2)C(=O)N(C)[C@H](C(=O)N2CCOCC2)CC(=O)N1C` [PP0851]: in assay [1] (KD ratio, SPR), the “NRAS/KRAS (ratio of KD value with respect to NRAS to KD value with respect to KRAS)” value is “B (a compound having 3 or more and less than 10 is denoted as B)”. Also, in assay [2] (KD ratio, SPR), the “HRAS/KRAS (ratio of KD value with respect to HRAS to KD value with respect to KRAS)” value was “B (a compound having 3 or more and less than 10 is denoted as B)”.
`CCCN1C(=O)CN(C)C(=O)CN(C)C(=O)[C@H]([C@@H](C)CC)NC(=O)[C@H](CC(F)(F)F)N(C)C(=O)C[C@@H](C(=O)N2CCOCC2)N(C)C(=O)[C@H](C2CCCC2)N(C)C(=O)C2(CCCC2)NC(=O)[C@@H]2CCCN2C(=O)[C@H](CCc2ccc(C(F)(F)F)c(Cl)c2)NC(=O)CN(C)C(=O)[C@@H]1Cc1ccc(C(F)(F)F)cc1` [PP0187] ([NMeAbu(4,4,4-F3)]I[Sar][Sar][NPrPhe(4-CF3)][Sar][hPhe(3-Cl-4-CF3)]P[Ac5c][NMeGly(cPent)][NMeD]-Morpholide; lactam N-11): the “NRAS/KRAS (ratio of KD for GDP-bound NRAS wild-type to KD for KRAS)” value in assay [1] (KD ratio NRAS/KRAS, SPR) is “B (a compound having 3 or more and less than 10 is denoted as B)”. Moreover, the “HRAS/KRAS (ratio of KD for GDP-bound HRAS wild-type to KD for KRAS)” value in assay [2] (KD ratio HRAS/KRAS, SPR) is “C (A compound having a KD ratio of 0.1 or more and less than 3 is denoted as C)”.
With `CCCOC[C@H]1C(=O)N[C@@H]([C@@H](C)CC)C(=O)N(C)CC(=O)N(C)[C@H]2C/C=C\CCN(C2=O)[C@@H](Cc2ccc(C(F)(F)F)cc2)C(=O)N(C)CC(=O)N[C@@H](CCc2cc(F)c(C(F)(F)F)c(F)c2)C(=O)N2C[C@@H](C)C[C@H]2C(=O)NC2(CC(C)(C)C2)C(=O)N(C)[C@@H](C2CCCC2)C(=O)N(C)[C@H](C(=O)N(C)CC)CC(=O)N1C` [PP2043], the “NRAS/KRAS (ratio of KD value with respect to NRAS to KD value with respect to KRAS)” value in assay [1] (SPR) is “A (a compound having 10 or more and less than 20 is denoted as A)”. Further, in assay [2] (SPR), the “HRAS/KRAS (ratio of KD value with respect to HRAS to KD value with respect to KRAS)” value is “A (a compound having 10 or more and less than 20 is denoted as A)”.
On to `CCO[C@@H]1C[C@H]2C(=O)NC3(CC(F)(F)C3)C(=O)N(C)[C@@H](C3CCCC3)C(=O)N(C)[C@H](C(=O)N(C)CC)CC(=O)N(C)[C@@H](CC3CC3)C(=O)N[C@@H]([C@@H](C)CC)C(=O)N(C)CC(=O)N(C)[C@H]3C/C=C\CCN(C3=O)[C@@H](Cc3ccc(C(F)(F)F)cc3)C(=O)N(C)CC(=O)N[C@@H](CCc3cc(F)c(C(F)(F)F)c(F)c3)C(=O)N2C1` [PP1738], for which, in assay [1] (KD ratio, SPR), the “NRAS/KRAS (ratio of KD value for NRAS to KD value for KRAS)” value is “AA (a compound having 20 or more is denoted as AA)”. Besides, the “HRAS/KRAS (ratio of KD value for HRAS to KD value for KRAS)” value in assay [2] (KD ratio, SPR) is “A (a compound having 10 or more and less than 20 is denoted as A)”.
Consider `CCO[C@@H]1C[C@H]2C(=O)NC3(CCC3)C(=O)N(C)[C@@H](C3CCCC3)C(=O)N(C)[C@H](C(=O)N(C)C)CC(=O)N(CC)[C@@H](CC(C)C)C(=O)N[C@@H]([C@@H](C)CC)C(=O)N(C)CC(=O)N(C)[C@H]3C/C=C\CCN(C3=O)[C@@H](Cc3ccc(C(F)(F)F)cc3)C(=O)N(C)CC(=O)N[C@@H](CCc3cc(F)c(C(F)(F)F)c(F)c3)C(=O)N2C1` [PP1765], for which the “NRAS/KRAS (ratio of KD value for NRAS to KD value for KRAS)” value in assay [1] (KD ratio, SPR) was “A (a compound having 10 or more and less than 20 is denoted as A)”. In addition, in assay [2] (KD ratio, SPR), the “HRAS/KRAS (ratio of KD value for HRAS to KD value for KRAS)” value is “A (a compound having 10 or more and less than 20 is denoted as A)”.
`CCO[C@@H]1C[C@H]2C(=O)NC3(CCCC3)C(=O)N(C)[C@@H](C3CCCC3)C(=O)N(C)[C@H](C(=O)N(C)C)CC(=O)N(C)[C@@H](CC(C)C)C(=O)N[C@@H]([C@@H](C)CC)C(=O)N(C)CC(=O)N(C)[C@H]3C/C=C\CCN(C3=O)[C@@H](Cc3ccc(C(F)(F)F)cc3)C(=O)N(C)CC(=O)N[C@@H](CCc3cc(F)c(C(F)(F)F)c(F)c3)C(=O)N2C1` [PP1105]: in assay [1] (KD ratio, SPR), the “NRAS/KRAS (ratio of KD value with respect to NRAS to KD value with respect to KRAS)” value is “A (a compound having 10 or more and less than 20 is denoted as A)”. The “HRAS/KRAS (ratio of KD value with respect to HRAS to KD value with respect to KRAS)” value in assay [2] (KD ratio, SPR) is “A (a compound having 10 or more and less than 20 is denoted as A)”.
